Entries after “also recorded” stand apart in the source; their conditions may differ. Ends that are not written are not given here.

One may read the Kd as the concentration at which binding is half-saturated. A higher Kd goes with lower affinity.

In experiment [1] the target is T1, FV-810 (Homo sapiens, UniProt P12259, DEL839-1519).
T1 construct: amino acids 1-28 are a signal peptide that is cleaved and numbering begins at residue 29; made in house
As to the kind of experiment: Displacement of OG488-BR from preformed OG488-BR/FV-810 complex (fluorescence anisotropy). The experiment is classed as binding. The settings on record: 30 nM OG488-BR, 20 nM FV-810, 50 μM PCPS; for Kd: 25° C. (In general: Polarisation of emitted light reports the rotation of a fluorescent probe.)

For experiment [2], the target named is T2, FXa/FV-DT (Homo sapiens, UniProt P12259, DEL839-1519).
T2 construct: amino acids 1-28 are a signal peptide that is cleaved and numbering begins at residue 29; made in house
As to the kind of experiment: Prothrombin activation assay, prothrombinase containing FV-810 (FV-DT). The experiment is classed as biochemical. To be noted: peptide titrated, 1.4 μM prothrombin, 50 μM PCPS, 25° C. Here is the method:
Steady-state initial velocities of prothrombin cleavage were determined discontinuously at 25° C. by measuring the initial rate of thrombin formation. Reaction mixtures contained liposomes (75:25, PC:PS), prothrombin, the indicated Factor V variants, and the Factor V peptides FVBR or s46. The reactions were initiated by adding Factor Xa, and thrombin generation was determined at multiple time points by monitoring the cleavage of the chromogenic thrombin substrate S-2238.
Steady-state initial velocities of prothrombin cleavage were determined discontinuously at 25° C. as described (Camire, R. M. (2002) J. Biol. Chem., 277:37863-37870). Reaction mixtures containing PCPS (50 μM), DAPA (3 μM), prothrombin (1.4 μM), and either rFVa or the indicated FV-810 derivatives were incubated with B-domain peptides (0-10 μM) in assay buffer. […] Prothrombin activation was determined using the chromogenic thrombin substrate 52238 as described (Camire, R. M. (2002) J. Biol. Chem., 277:37863-37870).

The target in experiment [3] is T1, FV-810. As to the kind of experiment: Clotting assay, FV-deficient plasma supplemented with FV-810 (FV-DT). Type of experiment: biochemical. The settings on record: for inhibition of clotting activity of FV-810 (FV-DT): FV-deficient plasma, FIG. 8A: 0.25 nM FV-810, peptides at 5 μM. Here is the method:
(§1) Residual clotting activity of Factor V variants was determined by prothrombin time-based clotting assays. Factor V variants were incubated with either the FVBR or s46 peptide, after which the mixtures were mixed with Factor V deficient plasma and clotting times were measured. Where indicated, the Factor V variants were activated by pre-incubation with thrombin prior to addition of the peptides.
(§2) FV derivatives (500 nM) were prepared in assay buffer. Where noted, FV derivatives were pretreated with 10 nM thrombin for 15 minutes at 37° C., followed by the addition of 15 nM hirudin. Samples were diluted to 0.25 nM in assay buffer with 0.1% BSA, and the specific clotting activity was measured in FV-deficient plasma (George King Bio-Medical, Overland Park, Kans.) with TriniCLOT PT Excel (Tcoag, Wicklow, Ireland) as described (Camire et al. (1998) Biochemistry 37:11896-11906). The data are presented as the means±S.D.

For another experiment, the system named is normal human plasma. As to the kind of experiment: Clot time of normal human plasma. Type of experiment: biochemical. To be noted: increasing amounts of FVBR.
The target in experiment [4] is T2, FXa/FV-DT. As to the kind of experiment: Binding of fluorescently labeled FXa to FV-DT on liposomes (anisotropy). To be noted: on PCPS liposomes.
A further experiment deals with T3, FXa/FVa (Homo sapiens, UniProt P12259).
T3 construct: thrombin rapidly cleaves Factor V at Arg709 to produce heavy chain (HC); rapidly cleaves at Arg1018 and Arg1545 to produce light chain (LC); made in house
T3 sequence (P12259 29-737 limits assumed): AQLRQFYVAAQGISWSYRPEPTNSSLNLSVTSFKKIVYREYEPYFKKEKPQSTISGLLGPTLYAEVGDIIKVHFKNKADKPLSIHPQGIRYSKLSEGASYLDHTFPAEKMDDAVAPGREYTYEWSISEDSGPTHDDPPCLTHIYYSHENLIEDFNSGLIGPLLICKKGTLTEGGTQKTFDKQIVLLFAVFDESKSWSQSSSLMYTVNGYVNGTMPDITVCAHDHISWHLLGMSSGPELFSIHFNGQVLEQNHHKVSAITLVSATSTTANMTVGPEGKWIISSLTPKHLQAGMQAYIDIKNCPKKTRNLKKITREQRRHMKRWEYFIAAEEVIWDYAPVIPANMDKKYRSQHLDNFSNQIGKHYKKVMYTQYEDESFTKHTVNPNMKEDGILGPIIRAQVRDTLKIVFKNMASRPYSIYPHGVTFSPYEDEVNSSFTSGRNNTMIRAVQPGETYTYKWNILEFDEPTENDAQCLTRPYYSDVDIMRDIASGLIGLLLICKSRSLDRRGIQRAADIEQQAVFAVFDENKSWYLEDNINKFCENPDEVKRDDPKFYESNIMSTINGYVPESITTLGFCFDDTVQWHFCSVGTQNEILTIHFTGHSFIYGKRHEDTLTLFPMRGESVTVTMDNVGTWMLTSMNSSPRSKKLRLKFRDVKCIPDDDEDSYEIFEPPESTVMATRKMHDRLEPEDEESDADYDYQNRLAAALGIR
T3 sequence (P12259 1574-2224 limits assumed): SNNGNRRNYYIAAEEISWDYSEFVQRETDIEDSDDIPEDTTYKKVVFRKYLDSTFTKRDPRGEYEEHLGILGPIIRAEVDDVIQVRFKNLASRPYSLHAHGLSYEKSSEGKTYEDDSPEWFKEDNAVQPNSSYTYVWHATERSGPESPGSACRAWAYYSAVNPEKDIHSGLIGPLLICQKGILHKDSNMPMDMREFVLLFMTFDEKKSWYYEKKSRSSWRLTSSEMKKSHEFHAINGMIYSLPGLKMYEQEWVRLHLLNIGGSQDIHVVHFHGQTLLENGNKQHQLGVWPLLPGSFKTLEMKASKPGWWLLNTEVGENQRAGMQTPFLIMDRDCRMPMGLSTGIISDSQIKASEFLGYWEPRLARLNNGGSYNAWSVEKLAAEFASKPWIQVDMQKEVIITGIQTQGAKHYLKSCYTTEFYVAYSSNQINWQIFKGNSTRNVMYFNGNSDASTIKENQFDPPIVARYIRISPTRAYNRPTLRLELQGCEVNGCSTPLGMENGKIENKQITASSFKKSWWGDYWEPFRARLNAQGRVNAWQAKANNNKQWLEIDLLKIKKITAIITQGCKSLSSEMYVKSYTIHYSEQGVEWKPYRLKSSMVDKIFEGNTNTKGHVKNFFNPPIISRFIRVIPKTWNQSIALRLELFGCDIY
The experiment can be described thus: Binding of fluorescently labeled FXa to rFVa on liposomes (anisotropy). The settings on record: on PCPS liposomes.

In a further experiment the target is T4, FV-810^R709Q (Homo sapiens, UniProt P12259, DEL839-1519/R737Q).
T4 construct: amino acids 1-28 are a signal peptide that is cleaved and numbering begins at residue 29; made in house
As to the kind of experiment: Clotting assay with FV-810^R709Q. To be noted: prior to thrombin cleavage. The experiment is classed as biochemical. As for the experimental part: as §1, §2

A further experiment concerns the target T5, FV-810^R1545Q (Homo sapiens, UniProt P12259, DEL839-1519/R1573Q).
T5 construct: amino acids 1-28 are a signal peptide that is cleaved and numbering begins at residue 29; made in house
As to the kind of experiment: Clotting assay with FV-810^R1545Q. The experiment is classed as biochemical. As for the experimental part: as §1, §2

T2 sequence (P12259 with tags, fused parts or gaps DEL839-1519): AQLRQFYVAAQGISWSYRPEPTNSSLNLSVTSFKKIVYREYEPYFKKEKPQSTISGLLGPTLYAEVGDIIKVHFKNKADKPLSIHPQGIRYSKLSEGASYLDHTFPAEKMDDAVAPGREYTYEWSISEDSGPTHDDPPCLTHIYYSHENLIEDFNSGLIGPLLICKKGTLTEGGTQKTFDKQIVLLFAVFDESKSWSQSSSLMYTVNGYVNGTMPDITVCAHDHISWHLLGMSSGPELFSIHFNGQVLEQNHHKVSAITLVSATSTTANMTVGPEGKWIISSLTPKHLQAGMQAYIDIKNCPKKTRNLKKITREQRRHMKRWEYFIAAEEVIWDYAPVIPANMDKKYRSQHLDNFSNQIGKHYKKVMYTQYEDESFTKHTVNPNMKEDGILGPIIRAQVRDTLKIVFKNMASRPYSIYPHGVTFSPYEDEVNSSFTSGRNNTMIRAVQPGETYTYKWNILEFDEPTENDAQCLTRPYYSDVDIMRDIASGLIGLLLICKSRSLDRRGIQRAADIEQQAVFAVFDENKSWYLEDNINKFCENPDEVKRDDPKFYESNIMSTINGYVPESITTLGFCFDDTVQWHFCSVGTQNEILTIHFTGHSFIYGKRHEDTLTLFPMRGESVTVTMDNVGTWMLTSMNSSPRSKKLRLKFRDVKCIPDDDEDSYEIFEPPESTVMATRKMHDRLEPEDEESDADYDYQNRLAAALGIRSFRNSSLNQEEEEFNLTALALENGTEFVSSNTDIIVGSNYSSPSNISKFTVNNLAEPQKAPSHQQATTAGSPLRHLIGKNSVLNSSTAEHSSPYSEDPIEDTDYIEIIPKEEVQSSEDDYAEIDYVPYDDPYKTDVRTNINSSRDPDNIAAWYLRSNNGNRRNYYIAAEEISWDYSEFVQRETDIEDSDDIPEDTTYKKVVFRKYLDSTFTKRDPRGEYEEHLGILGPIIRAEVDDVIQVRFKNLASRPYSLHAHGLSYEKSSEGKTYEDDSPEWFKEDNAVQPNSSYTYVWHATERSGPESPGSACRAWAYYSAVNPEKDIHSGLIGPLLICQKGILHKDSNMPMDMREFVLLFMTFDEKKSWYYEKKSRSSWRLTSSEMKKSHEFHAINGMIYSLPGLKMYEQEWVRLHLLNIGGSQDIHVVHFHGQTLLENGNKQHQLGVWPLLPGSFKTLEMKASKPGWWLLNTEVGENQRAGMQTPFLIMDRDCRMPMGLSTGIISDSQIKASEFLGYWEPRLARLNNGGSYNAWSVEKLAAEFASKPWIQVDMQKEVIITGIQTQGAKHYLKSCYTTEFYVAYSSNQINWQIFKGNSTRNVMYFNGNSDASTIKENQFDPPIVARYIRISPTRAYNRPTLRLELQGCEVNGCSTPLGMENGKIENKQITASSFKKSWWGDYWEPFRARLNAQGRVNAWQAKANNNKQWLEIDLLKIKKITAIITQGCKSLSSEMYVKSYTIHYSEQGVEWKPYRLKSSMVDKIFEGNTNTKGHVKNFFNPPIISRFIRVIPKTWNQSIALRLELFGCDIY
T1 sequence (P12259 with tags, fused parts or gaps DEL839-1519): as above
T5 sequence (P12259 with tags, fused parts or gaps DEL839-1519/R1573Q): as the sequence (P12259 with tags, fused parts or gaps DEL839-1519) above, with R864Q counted along it
T4 sequence (P12259 with tags, fused parts or gaps R737Q/DEL839-1519): as the sequence (P12259 with tags, fused parts or gaps DEL839-1519) above, with R709Q counted along it

On to “SRAWGESTPLANKPGKQSGHPKFPRVRHKSLQVRQDGGKSRLKKSQFLIKTRKKKKEK [FVBR]”, for which the “stoichiometry n, unlabeled BR” value at FV-810 [1] is 1.0±0.06 mol of BR/mol of FV-810. The Kd was 2.2 ± 0.2 nM at FV-810 [1] (assuming stoichiometry of 1 mol of FV-810/mol of BR peptide) and 2.1 ± 0.2 nM at FV-810 [1] (n fitted). The “inhibition of prothrombin activation with FV-810 (FV-DT)” value is given as “inhibiting; also recorded: inhibition” at FXa/FV-DT [2] and “effectively inhibited” on FXa/FV-DT [2] (listed as BR peptide). Also, the figures for the “inhibition of clotting activity of FV-810 (FV-DT)” value against FV-810 [3] and against FV-810 [3] (listed as BR peptide) were “inhibited” and “similarly inhibited”, respectively. The “inhibition of FV-810” value at FV-810 [3] (prior to thrombin cleavage) is on record as “potently inhibited”. For the same sequence, the “clot time of normal plasma” value with normal human plasma is recorded as “prolongs the clot time”. For the same sequence, the results for the “disruption of FXa binding to FV-DT” value at FXa/FV-DT [4] and at FXa/FV-DT [4] (listed as FV basic region peptide) were “impaired” and “disrupts binding”, respectively. At FXa/FVa, the “disruption of FXa binding to FVa” value is recorded as “not FVa”. Further, the “inhibition of FV-810^R709Q” value against FV-810^R709Q is reported as “potently inhibited”. In addition, the “inhibition of FV-810^R1545Q” value on FV-810^R1545Q (following incubation with thrombin) is given as “still inhibited”; against FV-810^R1545Q (prior to thrombin cleavage), “potently inhibited”.

The values above are taken from patent publication US10239933B2, “Compositions and methods for modulating thrombin generation” (The Children's Hospital of Philadelphia, priority 2011, dated 2019).
